Laboratory results taken from ChEMBL document CHEMBL4507304, “Data for DCP probe TP-021” (2021).

What was measured:
[1] = molecular target: AP2-associated protein kinase 1 (Homo sapiens) (UniProt Q2M2I8); settings: Compound concentration 1000.0 nM
[2] = system: Tyrosine-protein kinase ABL1 (Homo sapiens), P00519 [Q252H]; settings: Compound concentration 1000.0 nM
[3] = molecular target: Activin receptor type-1-like (Homo sapiens) (UniProt P37023); settings: Compound concentration 1000.0 nM
[4] = molecular target: RAC-gamma serine/threonine-protein kinase (Homo sapiens) (UniProt Q9Y243); settings: Compound concentration 1000.0 nM
[5] = molecular target: 5'-AMP-activated protein kinase catalytic subunit alpha-2 (Homo sapiens) (UniProt P54646); settings: Compound concentration 1000.0 nM
[6] = molecular target: Calcium/calmodulin-dependent protein kinase type 1 (Homo sapiens) (UniProt Q14012); settings: Compound concentration 1000.0 nM
[7] = molecular target: Calcium/calmodulin-dependent protein kinase type 1B (Homo sapiens) (UniProt Q6P2M8); settings: Compound concentration 1000.0 nM
[8] = molecular target: Calcium/calmodulin-dependent protein kinase type 1G (Homo sapiens) (UniProt Q96NX5); settings: Compound concentration 1000.0 nM
[9] = molecular target: Cyclin-dependent kinase 8 (Homo sapiens) (UniProt P49336); settings: Compound concentration 1000.0 nM
Cyclin-dependent kinase 8 (Homo sapiens), sequence (P49336 whole entry): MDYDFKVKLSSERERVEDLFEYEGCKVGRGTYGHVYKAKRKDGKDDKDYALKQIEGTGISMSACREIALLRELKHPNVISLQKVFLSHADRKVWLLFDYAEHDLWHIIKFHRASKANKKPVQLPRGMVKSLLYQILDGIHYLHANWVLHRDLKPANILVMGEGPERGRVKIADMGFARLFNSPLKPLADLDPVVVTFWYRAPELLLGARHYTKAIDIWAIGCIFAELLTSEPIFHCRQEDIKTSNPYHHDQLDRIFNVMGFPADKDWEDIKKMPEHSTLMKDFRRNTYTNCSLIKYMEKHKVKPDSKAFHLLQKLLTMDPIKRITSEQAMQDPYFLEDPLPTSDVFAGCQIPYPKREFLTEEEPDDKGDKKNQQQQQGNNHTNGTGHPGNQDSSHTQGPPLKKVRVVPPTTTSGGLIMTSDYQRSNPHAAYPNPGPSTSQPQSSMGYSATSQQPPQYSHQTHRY

[10] = molecular target: Serine/threonine-protein kinase Chk2 (Homo sapiens) (UniProt O96017); settings: Compound concentration 1000.0 nM
Serine/threonine-protein kinase Chk2 (Homo sapiens), sequence (O96017 whole entry): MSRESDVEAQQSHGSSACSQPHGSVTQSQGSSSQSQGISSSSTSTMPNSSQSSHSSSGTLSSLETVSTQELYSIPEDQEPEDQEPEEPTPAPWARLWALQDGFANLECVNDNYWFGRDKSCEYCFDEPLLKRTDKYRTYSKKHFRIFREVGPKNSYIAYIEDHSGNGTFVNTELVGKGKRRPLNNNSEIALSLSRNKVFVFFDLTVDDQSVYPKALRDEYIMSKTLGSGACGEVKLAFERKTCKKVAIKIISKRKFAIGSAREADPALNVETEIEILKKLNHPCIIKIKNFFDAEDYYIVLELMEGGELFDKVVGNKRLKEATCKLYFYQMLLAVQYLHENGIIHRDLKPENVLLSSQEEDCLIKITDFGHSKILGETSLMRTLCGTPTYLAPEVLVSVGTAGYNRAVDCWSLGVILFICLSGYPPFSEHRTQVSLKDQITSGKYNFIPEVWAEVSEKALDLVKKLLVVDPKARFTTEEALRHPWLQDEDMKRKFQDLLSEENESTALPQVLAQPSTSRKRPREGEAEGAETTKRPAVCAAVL

[11] = molecular target: Citron Rho-interacting kinase (Homo sapiens) (UniProt O14578); settings: Compound concentration 1000.0 nM
[12] = molecular target: Casein kinase II subunit alpha' (Homo sapiens) (UniProt P19784); settings: Compound concentration 1000.0 nM
Casein kinase II subunit alpha' (Homo sapiens), sequence (P19784 whole entry, looked up, the tested form may be a part): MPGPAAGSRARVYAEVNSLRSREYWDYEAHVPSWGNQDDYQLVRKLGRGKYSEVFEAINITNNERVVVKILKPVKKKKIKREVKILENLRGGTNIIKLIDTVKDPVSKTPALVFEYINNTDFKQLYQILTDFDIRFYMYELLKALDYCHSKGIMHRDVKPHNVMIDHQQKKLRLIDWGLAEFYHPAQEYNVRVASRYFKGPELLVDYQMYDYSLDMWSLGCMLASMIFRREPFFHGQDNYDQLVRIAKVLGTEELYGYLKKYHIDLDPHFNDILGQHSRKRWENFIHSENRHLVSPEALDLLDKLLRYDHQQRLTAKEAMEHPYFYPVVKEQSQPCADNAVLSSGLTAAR

[13] = molecular target: Epithelial discoidin domain-containing receptor 1 (Homo sapiens) (UniProt Q08345); settings: Compound concentration 1000.0 nM
[14] = molecular target: Mitogen-activated protein kinase kinase kinase 12 (Homo sapiens) (UniProt Q12852); settings: Compound concentration 1000.0 nM
[15] = molecular target: Serine/threonine-protein kinase 17A (Homo sapiens) (UniProt Q9UEE5); settings: Compound concentration 1000.0 nM
[16] = system: Epidermal growth factor receptor (Homo sapiens), P00533 [T790M]; settings: Compound concentration 1000.0 nM
[17] = molecular target: Serine/threonine-protein kinase/endoribonuclease IRE1 (Homo sapiens) (UniProt O75460); settings: Compound concentration 1000.0 nM
[18] = molecular target: Fibroblast growth factor receptor 4 (Homo sapiens) (UniProt P22455); settings: Compound concentration 1000.0 nM
[19] = molecular target: G protein-coupled receptor kinase 3 (Homo sapiens) (UniProt P35626); settings: Compound concentration 1000.0 nM
[20] = molecular target: Homeodomain-interacting protein kinase 4 (Homo sapiens) (UniProt Q8NE63); settings: Compound concentration 1000.0 nM
[21] = molecular target: Inhibitor of nuclear factor kappa-B kinase subunit beta (Homo sapiens) (UniProt O14920); settings: Compound concentration 1000.0 nM
[22] = molecular target: Interleukin-1 receptor-associated kinase 3 (Homo sapiens) (UniProt Q9Y616); settings: Compound concentration 1000.0 nM
[23] = system: Mast/stem cell growth factor receptor Kit (Homo sapiens), P10721 [V559D]; settings: Compound concentration 1000.0 nM
[24] = system: Mast/stem cell growth factor receptor Kit (Homo sapiens), P10721 [V559D,V654A]; settings: Compound concentration 1000.0 nM
[25] = molecular target: Serine/threonine-protein kinase LATS2 (Homo sapiens) (UniProt Q9NRM7); settings: Compound concentration 1000.0 nM
Serine/threonine-protein kinase LATS2 (Homo sapiens), sequence (Q9NRM7 whole entry): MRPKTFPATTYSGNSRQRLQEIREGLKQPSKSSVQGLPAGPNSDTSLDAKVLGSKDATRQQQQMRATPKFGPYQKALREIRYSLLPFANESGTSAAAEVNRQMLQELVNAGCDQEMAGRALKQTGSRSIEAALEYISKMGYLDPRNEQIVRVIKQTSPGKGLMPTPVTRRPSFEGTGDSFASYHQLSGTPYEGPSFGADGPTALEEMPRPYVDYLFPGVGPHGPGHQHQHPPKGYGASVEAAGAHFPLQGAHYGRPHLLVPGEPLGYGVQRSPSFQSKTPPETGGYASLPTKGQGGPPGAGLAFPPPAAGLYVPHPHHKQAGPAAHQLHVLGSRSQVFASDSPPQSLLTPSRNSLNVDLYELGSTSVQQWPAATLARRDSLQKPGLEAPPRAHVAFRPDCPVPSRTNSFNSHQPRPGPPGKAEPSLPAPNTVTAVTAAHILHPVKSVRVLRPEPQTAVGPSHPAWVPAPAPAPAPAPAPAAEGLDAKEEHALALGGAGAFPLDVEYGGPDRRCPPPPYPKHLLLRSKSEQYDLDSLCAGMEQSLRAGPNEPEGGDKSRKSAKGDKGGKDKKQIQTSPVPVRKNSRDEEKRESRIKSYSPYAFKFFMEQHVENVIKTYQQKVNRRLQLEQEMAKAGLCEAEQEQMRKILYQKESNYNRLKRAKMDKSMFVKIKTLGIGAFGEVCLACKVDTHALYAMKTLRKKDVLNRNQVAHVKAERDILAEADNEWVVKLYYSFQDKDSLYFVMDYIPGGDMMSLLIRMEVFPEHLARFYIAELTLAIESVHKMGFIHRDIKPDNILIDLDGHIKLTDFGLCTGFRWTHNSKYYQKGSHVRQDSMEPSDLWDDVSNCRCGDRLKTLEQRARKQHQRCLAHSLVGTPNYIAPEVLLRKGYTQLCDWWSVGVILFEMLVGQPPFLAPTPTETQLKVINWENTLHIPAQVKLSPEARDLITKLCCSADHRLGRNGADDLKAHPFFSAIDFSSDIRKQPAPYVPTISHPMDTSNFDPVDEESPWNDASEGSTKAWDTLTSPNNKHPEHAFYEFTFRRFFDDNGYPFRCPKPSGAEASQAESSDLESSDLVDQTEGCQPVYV

[26] = molecular target: Microtubule-associated serine/threonine-protein kinase 1 (Homo sapiens) (UniProt Q9Y2H9); settings: Compound concentration 1000.0 nM
[27] = molecular target: Dual specificity mitogen-activated protein kinase kinase 7 (Homo sapiens) (UniProt O14733); settings: Compound concentration 1000.0 nM
Dual specificity mitogen-activated protein kinase kinase 7 (Homo sapiens), sequence (O14733 whole entry): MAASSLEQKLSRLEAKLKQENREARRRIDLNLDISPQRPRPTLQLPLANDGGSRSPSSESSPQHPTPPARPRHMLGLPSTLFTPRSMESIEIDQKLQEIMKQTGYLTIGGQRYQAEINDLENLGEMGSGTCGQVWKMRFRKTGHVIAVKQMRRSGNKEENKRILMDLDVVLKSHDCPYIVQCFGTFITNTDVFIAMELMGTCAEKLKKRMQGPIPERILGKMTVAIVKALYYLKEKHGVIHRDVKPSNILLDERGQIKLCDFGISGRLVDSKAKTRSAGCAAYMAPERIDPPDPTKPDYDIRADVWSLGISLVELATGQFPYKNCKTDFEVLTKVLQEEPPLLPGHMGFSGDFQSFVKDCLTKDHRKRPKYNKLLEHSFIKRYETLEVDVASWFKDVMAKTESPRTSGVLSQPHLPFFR

[28] = molecular target: MAP kinase-interacting serine/threonine-protein kinase 2 (Homo sapiens) (UniProt Q9HBH9); settings: Compound concentration 1000.0 nM
[29] = molecular target: Serine/threonine-protein kinase Nek10 (Homo sapiens) (UniProt Q6ZWH5); settings: Compound concentration 1000.0 nM
[30] = molecular target: Mitogen-activated protein kinase 11 (Homo sapiens) (UniProt Q15759); settings: Compound concentration 1000.0 nM
[31] = molecular target: Mitogen-activated protein kinase 12 (Homo sapiens) (UniProt P53778); settings: Compound concentration 1000.0 nM
[32] = system: Phosphatidylinositol 4,5-bisphosphate 3-kinase catalytic subunit alpha isoform (Homo sapiens), P42336 [H1047Y]; settings: Compound concentration 1000.0 nM
[33] = molecular target: Serine/threonine-protein kinase PknB (Mycobacterium tuberculosis) (UniProt P9WI81); settings: Compound concentration 1000.0 nM
[34] = molecular target: Protein kinase C delta type (Homo sapiens) (UniProt Q05655); settings: Compound concentration 1000.0 nM
Protein kinase C delta type (Homo sapiens), sequence (Q05655 whole entry, looked up): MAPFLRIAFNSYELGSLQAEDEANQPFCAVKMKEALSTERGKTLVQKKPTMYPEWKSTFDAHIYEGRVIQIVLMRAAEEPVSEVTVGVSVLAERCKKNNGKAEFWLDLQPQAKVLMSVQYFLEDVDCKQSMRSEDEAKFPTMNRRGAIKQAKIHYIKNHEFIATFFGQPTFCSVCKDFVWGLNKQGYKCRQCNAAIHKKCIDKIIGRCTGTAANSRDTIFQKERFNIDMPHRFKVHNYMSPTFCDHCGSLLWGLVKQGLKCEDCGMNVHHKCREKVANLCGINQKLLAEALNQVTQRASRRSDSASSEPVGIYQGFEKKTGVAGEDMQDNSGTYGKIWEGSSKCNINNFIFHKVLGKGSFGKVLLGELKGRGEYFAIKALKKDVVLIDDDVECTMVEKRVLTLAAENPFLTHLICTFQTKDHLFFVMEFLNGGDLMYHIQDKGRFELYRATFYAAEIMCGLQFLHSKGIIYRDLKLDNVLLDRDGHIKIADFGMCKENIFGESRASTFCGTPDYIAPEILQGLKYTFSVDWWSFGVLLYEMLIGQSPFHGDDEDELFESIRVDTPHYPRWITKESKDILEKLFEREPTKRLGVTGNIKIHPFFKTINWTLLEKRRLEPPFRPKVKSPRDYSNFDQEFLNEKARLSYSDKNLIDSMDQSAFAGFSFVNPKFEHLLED

[35] = molecular target: Serine/threonine-protein kinase D2 (Homo sapiens) (UniProt Q9BZL6); settings: Compound concentration 1000.0 nM
[36] = molecular target: cGMP-dependent protein kinase 1 (Homo sapiens) (UniProt Q13976); settings: Compound concentration 1000.0 nM
[37] = system: Proto-oncogene tyrosine-protein kinase receptor Ret (Homo sapiens), P07949 [V804L]; settings: Compound concentration 1000.0 nM
[38] = molecular target: Ribosomal protein S6 kinase alpha-5 (Homo sapiens) (UniProt O75582); settings: Compound concentration 1000.0 nM
[39] = molecular target: Serine/threonine-protein kinase SIK2 (Homo sapiens) (UniProt Q9H0K1); settings: Compound concentration 1000.0 nM
[40] = molecular target: Serine/threonine-protein kinase tousled-like 1 (Homo sapiens) (UniProt Q9UKI8); settings: Compound concentration 1000.0 nM
[41] = molecular target: Testis-specific serine/threonine-protein kinase 3 (Homo sapiens) (UniProt Q96PN8); settings: Compound concentration 1000.0 nM
Testis-specific serine/threonine-protein kinase 3 (Homo sapiens), sequence (Q96PN8 whole entry): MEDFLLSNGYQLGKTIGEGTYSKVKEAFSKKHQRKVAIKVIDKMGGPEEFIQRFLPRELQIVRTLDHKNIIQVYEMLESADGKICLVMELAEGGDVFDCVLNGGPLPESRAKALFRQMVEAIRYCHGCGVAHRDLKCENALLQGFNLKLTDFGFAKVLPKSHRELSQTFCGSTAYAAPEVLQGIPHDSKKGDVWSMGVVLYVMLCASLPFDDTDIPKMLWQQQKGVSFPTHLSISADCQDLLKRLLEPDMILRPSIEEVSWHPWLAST

[42] = molecular target: Non-receptor tyrosine-protein kinase TYK2 (Homo sapiens) (UniProt P29597); settings: Compound concentration 1000.0 nM
Non-receptor tyrosine-protein kinase TYK2 (Homo sapiens), sequence (P29597 whole entry): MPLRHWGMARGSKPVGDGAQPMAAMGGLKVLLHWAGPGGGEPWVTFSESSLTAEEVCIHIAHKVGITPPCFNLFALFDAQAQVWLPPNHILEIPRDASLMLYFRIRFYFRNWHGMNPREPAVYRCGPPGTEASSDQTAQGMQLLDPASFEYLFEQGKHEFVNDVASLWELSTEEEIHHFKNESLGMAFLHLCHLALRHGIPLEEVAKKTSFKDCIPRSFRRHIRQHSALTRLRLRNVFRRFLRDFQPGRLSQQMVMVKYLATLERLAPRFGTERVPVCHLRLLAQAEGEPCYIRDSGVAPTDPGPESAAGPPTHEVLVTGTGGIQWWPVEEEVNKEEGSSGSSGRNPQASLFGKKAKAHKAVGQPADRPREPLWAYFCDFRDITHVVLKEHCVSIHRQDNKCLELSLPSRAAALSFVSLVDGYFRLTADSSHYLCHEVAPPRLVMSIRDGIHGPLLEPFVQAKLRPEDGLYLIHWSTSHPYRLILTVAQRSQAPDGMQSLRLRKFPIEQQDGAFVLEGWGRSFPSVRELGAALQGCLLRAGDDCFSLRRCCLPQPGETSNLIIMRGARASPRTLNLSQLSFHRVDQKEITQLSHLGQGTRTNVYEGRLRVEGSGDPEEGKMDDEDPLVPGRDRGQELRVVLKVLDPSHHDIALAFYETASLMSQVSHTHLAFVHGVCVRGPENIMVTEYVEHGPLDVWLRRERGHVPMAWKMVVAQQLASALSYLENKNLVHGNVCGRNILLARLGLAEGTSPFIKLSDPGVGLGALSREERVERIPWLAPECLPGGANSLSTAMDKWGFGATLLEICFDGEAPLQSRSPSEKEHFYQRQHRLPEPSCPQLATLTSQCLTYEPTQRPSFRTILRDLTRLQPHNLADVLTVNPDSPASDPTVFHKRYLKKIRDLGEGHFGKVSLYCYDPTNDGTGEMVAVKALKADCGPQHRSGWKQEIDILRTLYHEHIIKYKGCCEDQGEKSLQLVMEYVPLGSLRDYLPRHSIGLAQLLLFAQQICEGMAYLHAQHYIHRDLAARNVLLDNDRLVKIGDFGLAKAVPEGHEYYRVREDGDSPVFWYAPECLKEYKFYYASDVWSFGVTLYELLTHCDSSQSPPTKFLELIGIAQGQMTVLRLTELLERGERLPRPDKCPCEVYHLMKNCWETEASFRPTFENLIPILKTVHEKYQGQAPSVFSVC

[43] = molecular target: Histamine H2 receptor (Homo sapiens) (UniProt P25021); settings: Compound concentration 10.0 uM
[44] = molecular target: Beta-1 adrenergic receptor (Homo sapiens) (UniProt P08588); settings: Compound concentration 10.0 uM
[45] = molecular target: Muscarinic acetylcholine receptor M4 (Homo sapiens) (UniProt P08173); settings: Compound concentration 10.0 uM

N#Cc1ccc(Nc2ccc3[nH]c(=O)[nH]c3c2)c(Cl)c1
inactive: residual activity [1] 100% | residual activity [2] 100% | residual activity [3] 100% | residual activity [4] 69% | residual activity [5] 81% | residual activity [6] 86% | residual activity [7] 78% | residual activity [8] 100% | residual activity [9] 100% | residual activity [10] 100% | residual activity [11] 100% | residual activity [12] 83% | residual activity [13] 100% | residual activity [14] 100% | residual activity [15] 94% | residual activity [16] 91% | residual activity [17] 86% | residual activity [18] 100% | residual activity [19] 100% | residual activity [20] 100% | residual activity [21] 89% | residual activity [22] 94% | residual activity [23] 100% | residual activity [24] 96% | residual activity [25] 95% | residual activity [26] 100% | residual activity [27] 100% | residual activity [28] 100% | residual activity [29] 100% | residual activity [30] 100% | residual activity [31] 100% | residual activity [32] 100% | residual activity [33] 100% | residual activity [34] 100% | residual activity [35] 100% | residual activity [36] 80% | residual activity [37] 100% | residual activity [38] 100% | residual activity [39] 100% | residual activity [40] 100% | residual activity [41] 100% | residual activity [42] 100% | inhibition [43] 2.26% | inhibition [44] 4.98% | inhibition [45] 11.6%

O=C1CCc2cc(Nc3cc(OC4CCOCC4)c([N+](=O)[O-])cc3Cl)ccc2N1
inactive: residual activity [1] 100% | residual activity [2] 100% | residual activity [3] 93% | residual activity [4] 94% | residual activity [5] 100% | residual activity [6] 93% | residual activity [7] 68% | residual activity [8] 100% | residual activity [9] 100% | residual activity [10] 69% | residual activity [11] 100% | residual activity [12] 76% | residual activity [13] 94% | residual activity [14] 100% | residual activity [15] 95% | residual activity [16] 85% | residual activity [17] 99% | residual activity [18] 81% | residual activity [19] 100% | residual activity [20] 98% | residual activity [21] 100% | residual activity [22] 98% | residual activity [23] 100% | residual activity [24] 92% | residual activity [25] 80% | residual activity [26] 100% | residual activity [27] 100% | residual activity [28] 98% | residual activity [29] 100% | residual activity [30] 88% | residual activity [31] 100% | residual activity [32] 100% | residual activity [33] 94% | residual activity [34] 100% | residual activity [35] 85% | residual activity [36] 89% | residual activity [37] 91% | residual activity [38] 86% | residual activity [39] 100% | residual activity [40] 92% | residual activity [41] 100% | residual activity [42] 94% | inhibition [43] 20.6% | inhibition [44] 3.3% | inhibition [45] 48.7%
